Experimental data from the supplement of paper PMC12317010.
Where a name gives a salt, the structure may show the parent alone.

Experiment: collision cross section in nitrogen (drift tube, single-field); higher = larger gas-phase ion size
[1] = ion type: [M+H], ion source: APCI, ion mode: Positive
[2] = ion type: [M+H], ion source: ESI, ion mode: Positive
[3] = ion type: [M+Na], ion source: ESI, ion mode: Positive
[4] = ion type: [M-H], ion source: ESI, ion mode: Negative
[5] = ion type: [M+], ion source: APCI, ion mode: Positive
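Also: chemical standards at 10 µM analysed by drift tube IMS-QTOF MS in about 3.95 torr nitrogen, mean of duplicate injections differing ≤1%, mass error below 10 ppm.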

Row | collision cross section in nitrogen [1] | collision cross section in nitrogen [2] | collision cross section in nitrogen [4] | collision cross section in nitrogen [5] | Compound | collision cross section in nitrogen [3]
1 | 167.9 Å² | 167.9 Å² |  |  | C=CCOC(Cn1ccnc1)c1ccc(Cl)cc1Cl (stereo not given) [Imazalil] | 
2 |  |  |  |  | O=C(NCNC(=O)NC1C(=O)NC(=O)N1CO)NC1C(=O)NC(=O)N1CO (stereo not given) [Imidazolidinyl urea] | 183.4 Å²
3 | 165.8 Å² | 166 Å² |  |  | CN(C)CCCN1c2ccccc2CCc2ccccc21 [Imipramine hydrochloride] | 172.7 Å²
4 |  | 187.6 Å² | 186.6 Å² |  | CC1Cc2ccccc2N1NC(=O)c1ccc(Cl)c(S(N)(=O)=O)c1 (stereo not given) [Indapamide] | 195.9 Å²
5 |  |  |  | 156.7 Å² | c1ccc2c(c1)-c1ccc3ccc4cccc5cc-2c1c3c45 [Indeno[1,2,3-cd]pyrene] | 
6 | 262.9 Å² | 262.3 Å² |  |  | CC(C)(C)NC(=O)[C@@H]1CN(Cc2cccnc2)CCN1C[C@@H](O)C[C@@H](Cc1ccccc1)C(=O)N[C@H]1c2ccccc2C[C@H]1O [Indinavir sulfate] | 246.1 Å²
7 |  |  | 154.8 Å² |  | O=C(O)CCCc1c[nH]c2ccccc12 [Indole-3-butyric acid] | 
8 | 139.3 Å² |  | 141.6 Å² |  | O=C(O)C(=O)Cc1c[nH]c2ccccc12 [Indole-3-pyruvic acid] | 
9 |  |  | 119.5 Å² |  | c1ccc2[nH]ccc2c1 [Indole] | 
10 | 120.8 Å² |  |  |  | c1ccc2c(c1)CCN2 [Indoline] | 
11 |  | 181.2 Å² |  |  | COc1ccc2c(c1)c(CC(=O)O)c(C)n2C(=O)c1ccc(Cl)cc1 [Indomethacin] | 191.6 Å²
12 | 215.9 Å² | 216 Å² | 206.2 Å² |  | O=C(N[C@@H](Cc1ccccc1)[C@@H](O)C(=O)N1C[C@@H](O)[C@@H](O)C1)c1cc2cc(Cl)ccc2[nH]1 [Ingliforib] | 220.4 Å²
13 |  | 146.4 Å² | 147.3 Å² |  | Oc1c(I)cc(I)c2cccnc12 [Iodoquinol] | 
14 | 194.5 Å² | 194.2 Å² | 196.1 Å² |  | COC(=O)c1ccc(I)cc1S(=O)(=O)NC(=O)Nc1nc(C)nc(OC)n1 [Iodosulfuron methyl ester sodium salt] | 195.8 Å²
15 |  |  |  | 171.5 Å² | CCC(Cc1c(I)cc(I)c(N)c1I)C(=O)O (stereo not given) [Iopanoic acid] | 
16 | 184.2 Å² |  |  |  | Cc1ccc(C(C)NC(=O)[C@@H](NC(=O)OC(C)C)C(C)C)cc1 (stereo not given in full) [Iprovalicarb] | 183.5 Å²
17 |  |  | 354.9 Å² | 355.6 Å² | CC(C)(C)c1cc(CCC(=O)OCC(COC(=O)CCc2cc(C(C)(C)C)c(O)c(C(C)(C)C)c2)(COC(=O)CCc2cc(C(C)(C)C)c(O)c(C(C)(C)C)c2)COC(=O)CCc2cc(C(C)(C)C)c(O)c(C(C)(C)C)c2)cc(C(C)(C)C)c1O [Irganox 1010] | 354.9 Å²
18 |  |  | 155.8 Å² |  | CCC(=O)O[C@H]1C[C@@H]2CC[C@@]1(C)C2(C)C [Isobornyl propanoate] | 
19 |  |  |  |  | COP(N)(=S)Oc1ccccc1C(=O)OC(C)C (stereo not given) [Isocarbophos] | 168.6 Å²
20 |  |  | 155 Å² |  | CC(=O)C(C)=CC1C(C)=CCCC1(C)C (stereo not drawn) [Isomethyl-alpha-ionone] | 
21 |  |  | 125.3 Å² |  | NNC(=O)c1ccncc1 [Isoniazid] | 
22 |  |  | 177.8 Å² |  | CC(C)CCCCCCCCCCCCCCC(=O)O [Isooctadecanoic acid] | 

Row | collision cross section in nitrogen [1] | collision cross section in nitrogen [2] | collision cross section in nitrogen [4] | collision cross section in nitrogen [5] | Compound | collision cross section in nitrogen [3]
23 |  | 142.3 Å² |  |  | CC1(C)CC(N)CC(C)(CN)C1 (stereo not given) [Isophorone diamine] | 
24 |  | 149.1 Å² | 145 Å² |  | NNC(=O)c1cccc(C(=O)NN)c1 [Isophthalyl dihydrazide] | 
25 |  |  | 165.3 Å² |  | CCCCCCCCCCCC(=O)OC(C)C [Isopropyl Laurate] | 
26 |  |  | 136.9 Å² |  | Cc1ccc(C(C)C)cc1O [Isopropyl-o-cresol] | 
27 |  | 151 Å² | 151.9 Å² |  | CC(C)NCC(O)c1ccc(O)c(O)c1 (stereo not given) [Isoproterenol hydrochloride] | 
28 | 122.3 Å² |  |  |  | c1ccc2cnccc2c1 [Isoquinoline] | 
29 |  |  |  |  | CC1(C)[C@H](/C=C2\CCSC2=O)[C@@H]1C(=O)OCc1coc(Cc2ccccc2)c1 [Kadethrin] | 192.5 Å²
30 | 163.2 Å² | 162.8 Å² | 162.2 Å² |  | O=c1c(O)c(-c2ccc(O)cc2)oc2cc(O)cc(O)c12 [Kaempferol] | 
31 | 217.3 Å² | 216.8 Å² |  |  | CC(=O)N1CCN(c2ccc(OC[C@H]3CO[C@](Cn4ccnc4)(c4ccc(Cl)cc4Cl)O3)cc2)CC1 [Ketoconazole] | 225.3 Å²
32 | 151.6 Å² | 151.1 Å² |  |  | COc1c2occc2c(OC)c2c(=O)cc(C)oc12 [Khellin] | 167.5 Å²
33 | 144.3 Å² | 144.4 Å² | 148.4 Å² |  | c1coc(CNc2[nH]cnc3ncnc2-3)c1 [Kinetin] | 159.2 Å²
34 |  |  | 132.8 Å² |  | OC[C@@H](O)[C@H](O)[C@@H](O)[C@@H](O)CO [L-Glucitol] | 142.9 Å²
35 |  |  | 125.9 Å² |  | N[C@@H](CCC(=O)O)C(=O)O [L-Glutamic acid hydrochloride] | 
36 |  |  | 140.8 Å² |  | N[C@@H](Cc1ccccc1)C(=O)O [L-Phenylalanine] | 
37 | 175.7 Å² | 175.2 Å² |  |  | CC(CCc1ccccc1)NCC(O)c1ccc(O)c(C(N)=O)c1 (stereo not given) [Labetalol hydrochloride] | 176.8 Å²
38 | 185.5 Å² | 184.7 Å² |  |  | CCCCCCCCCCCCN1CCCCCC1=O [Laurocapram] | 185.4 Å²
39 |  |  | 183.1 Å² |  | CCCCCCCCCCCCOC(=O)c1cc(O)c(O)c(O)c1 [Lauryl gallate] | 
40 | 183.7 Å² | 184.1 Å² |  |  | CCCCCCCCCCCCN(CCO)CCO [Lauryldiethanolamine] | 180.3 Å²
41 | 126.3 Å² | 125.4 Å² |  | 125.4 Å² | Cc1ccnc2ccccc12 [Lepidine] | 
42 | 199.9 Å² | 198.9 Å² |  |  | CN(C)c1ccc(C(c2ccccc2)c2ccc(N(C)C)cc2)cc1 [Leucomalachite green] | 
43 | 144.2 Å² | 144.8 Å² |  |  | c1ccc([C@H]2CN3CCSC3=N2)cc1 [Levamisole hydrochloride] | 155.8 Å²
44 |  |  | 141.6 Å² |  | N[C@@H](Cc1ccc(O)c(O)c1)C(=O)O [Levodopa] | 

Row | Compound | collision cross section in nitrogen [1] | collision cross section in nitrogen [2] | collision cross section in nitrogen [4] | collision cross section in nitrogen [5] | collision cross section in nitrogen [3]
45 | COCc1cnc(C2=NC(C)(C(C)C)C(=O)N2)c(C(=O)O)c1 (stereo not given) [Imazamox] | 172.2 Å² | 172.4 Å² | 178.2 Å² |  | 188.9 Å²
46 | Cc1cnc(C2=NC(=O)C(C)(C(C)C)N2)c(C(=O)O)c1 (stereo not given) [Imazapic] | 162.2 Å² | 162.4 Å² | 168.3 Å² |  | 178.8 Å²
47 | CC(C)C1(C)N=C(c2ncccc2C(=O)O)NC1=O (stereo not given) [Imazapyr] | 156.5 Å² | 156.7 Å² | 161.8 Å² |  | 173.1 Å²
48 | CC(C)C1(C)N=C(c2nc3ccccc3cc2C(=O)O)NC1=O (stereo not given) [Imazaquin] | 171.7 Å² | 171.7 Å² | 176.9 Å² |  | 188.4 Å²
49 | O=[N+]([O-])/N=C1\NCCN1Cc1ccc(Cl)nc1 [Imidacloprid] |  | 156 Å² | 157.3 Å² |  | 159.5 Å²
50 | COC(=O)N(C(=O)N1CO[C@@]2(C(=O)OC)Cc3cc(Cl)ccc3C2=N1)c1ccc(OC(F)(F)F)cc1 [Indoxacarb] | 206.6 Å² | 205.7 Å² |  |  | 220.4 Å²
51 | CC(C)C1CCC(Cc2ccc(Cl)cc2)C1(O)Cn1cncn1 (stereo not given) [Ipconazole] | 173.8 Å² | 173.8 Å² |  |  | 179.6 Å²
52 | CCOP(=S)(OCC)Oc1nc(Cl)n(C(C)C)n1 [Isazofos] |  | 166.9 Å² |  |  | 174.8 Å²
53 | CCOP(=S)(NC(C)C)Oc1ccccc1C(=O)OC(C)C (stereo not given) [Isofenphos] |  |  | 173.7 Å² |  | 184.2 Å²
54 | CCCN(CCC)c1c([N+](=O)[O-])cc(C(C)C)cc1[N+](=O)[O-] [Isopropalin] | 172.4 Å² |  | 175.1 Å² |  | 
55 | CC(C)c1ccc(NC(=O)N(C)C)cc1 [Isoproturon] | 152.9 Å² | 152.1 Å² | 155.4 Å² |  | 158.8 Å²
56 | CS(=O)(=O)c1cc(C(F)(F)F)ccc1C(=O)c1cnoc1C1CC1 [Isoxaflutole] |  |  | 175.5 Å² |  | 185.2 Å²
57 | C[C@H]1O[C@H](O[C@H]2[C@H](O)[C@@H](O)[C@@H](O)[C@H](O)[C@@H]2O)[C@@H](N)C[C@@H]1NC(=N)C(=O)O [Kasugamycin hydrochloride] |  | 165.9 Å² | 178 Å² |  | 
58 | CNC1(c2ccccc2Cl)CCCCC1=O (stereo not given) [Ketamine hydrochloride] | 149.7 Å² | 149.4 Å² |  |  | 158.8 Å²
59 | CCOC(=O)C(C)OC(=O)c1cc(Oc2ccc(C(F)(F)F)cc2Cl)ccc1[N+](=O)[O-] (stereo not given) [Lactofen] |  |  | 196 Å² |  | 212.7 Å²
